Assay [1] deals with HCV NS3 protease (UniProt P26663). The class given is biochemical, HCV genotype 1b. On the set-up: rows headed: IC50 (μM); IC50 (μM). To be noted: Table 6.
For assay [2], the target named is T1, human liver cathepsin B (Cat B) (Homo sapiens, UniProt P07858).
T1 construct: from tissue; host or cells: human liver
In words: Specificity assay (Example 40), human liver cathepsin B. Type of assay: biochemical. As to the method:
The specificity of the compounds was determined against a variety of serine proteases: human leukocyte elastase, porcine pancreatic elastase and bovine pancreatic α-chymotrypsin and one cysteine protease: human liver cathepsin B. In all cases a 96-well plate format protocol using a calorimetric p-nitroaniline (pNA) substrate specific for each enzyme was used. Each assay included a 1 h enzyme-inhibitor pre-incubation at 30° C. followed by addition of substrate and hydrolysis to ≈30% conversion as measured on a UV Thermomax® microplate reader. Substrate concentrations were kept as low as possible compared to KM to reduce substrate competition. Compound concentrations varied from 300 to 0.06 μM depending on their potency.
The final conditions for each assay were as follows:
[100 mM NaHPO4 pH 6, 0.1 mM EDTA, 3% DMSO, 1 mM TCEP, 0.01% Tween-20, 30 μM Z-FR-pNA and 5 nM cathepsin B (the stock enzyme was activated in buffer containing 20 mM TCEP before use)].
The sequential 2-fold dilutions of the inhibitor solution were performed on a separate plate by the liquid handler using 50 mM Tris-HCl pH 8, 50 mM NaCl, 0.1 mM EDTA, 0.02% Tween-20, 15% DMSO. All other specificity assays were performed in a similar fashion.
The percentage of inhibition was calculated using the formula:
[1-((UVinh−UVblank)/(UVctl−UVblank))]×100 […]

HCV NS3 protease, sequence (P26663 1027-1206, other chains not shown): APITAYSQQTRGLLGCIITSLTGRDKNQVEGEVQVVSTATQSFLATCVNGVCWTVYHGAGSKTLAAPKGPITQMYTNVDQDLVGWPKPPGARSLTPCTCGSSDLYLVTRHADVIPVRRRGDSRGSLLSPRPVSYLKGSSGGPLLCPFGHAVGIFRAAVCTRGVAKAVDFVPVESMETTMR

Regarding `C=C[C@@H]1C[C@]1(NC(=O)[C@@H]1C[C@@H](Oc2cc(-c3ccccc3)nc3cc(OC)ccc23)CN1C(=O)[C@@H](NC(=O)OC(C)(C)C)C(C)C)C(=O)O` [compound 601], the results for the IC50 in assay [1] and in assay [2] were 50 nM and more than 75000 nM, respectively.

As a reminder, the IC50 is the concentration at which inhibition is half-maximal. Higher therefore signals weaker potency.
